Consider 15 compounds from patent US11358936B2, “Lysyl oxidase-like 2 inhibitors and uses thereof” (PharmAkea, Inc., priority 2015, dated 2022).

Counter-ions that a name gives are not always drawn. A value given as a limit tells only on which side of the number the result lay.

Sequence of human LOXL2 (Q9Y4K0 26-774): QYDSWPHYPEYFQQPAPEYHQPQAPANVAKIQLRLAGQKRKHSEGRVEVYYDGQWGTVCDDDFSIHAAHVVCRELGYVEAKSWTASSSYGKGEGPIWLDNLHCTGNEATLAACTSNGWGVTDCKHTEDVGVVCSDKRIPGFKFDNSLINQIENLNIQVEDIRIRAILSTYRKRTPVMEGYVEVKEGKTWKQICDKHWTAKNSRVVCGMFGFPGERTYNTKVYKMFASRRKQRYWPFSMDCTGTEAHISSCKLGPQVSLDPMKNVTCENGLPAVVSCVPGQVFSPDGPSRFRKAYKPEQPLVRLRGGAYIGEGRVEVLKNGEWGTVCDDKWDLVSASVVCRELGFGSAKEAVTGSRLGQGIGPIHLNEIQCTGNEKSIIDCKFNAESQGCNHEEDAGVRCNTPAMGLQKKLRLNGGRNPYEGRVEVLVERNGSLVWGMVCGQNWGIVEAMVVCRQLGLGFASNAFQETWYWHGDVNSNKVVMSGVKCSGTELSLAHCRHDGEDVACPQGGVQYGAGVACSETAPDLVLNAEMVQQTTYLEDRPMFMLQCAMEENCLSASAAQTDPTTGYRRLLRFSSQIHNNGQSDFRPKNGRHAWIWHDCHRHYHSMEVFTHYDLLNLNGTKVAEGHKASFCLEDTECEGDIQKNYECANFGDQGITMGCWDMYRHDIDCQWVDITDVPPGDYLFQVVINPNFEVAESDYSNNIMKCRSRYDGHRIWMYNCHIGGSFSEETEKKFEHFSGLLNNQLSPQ

The test deals with human LOXL2 (Homo sapiens (Human), UniProt Q9Y4K0). Nature of the test: Human LOXL2 Amine Oxidase Activity Assay (Amplex Red fluorescence). It is filed as biochemical. As to conditions: concentrated conditioned media from CHO cells stably expressing human LOXL2; 2 h at 37° C. preincubation; DAP substrate; read-out: IC50. Here is the method:
LOXL2 amine oxidase activity is evaluated by measuring Amplex Red fluorescence using 10-20× concentrated conditioned media from CHO cells stably expressing human LOXL2. To assay for amine oxidase activity, 10 μL of the concentrated conditioned media is incubated with 2 μL of test compound in DMSO and 73 μL Assay Buffer (50 mM Borate Buffer, pH8) for 2 h at 37° C. After the 2 h incubation, 5 μl of 10 mM 1,5-Diaminopentane (DAP) diluted in Assay Buffer and 10 μl of Amplex Red Mix (8.5 μl Assay Buffer+0.5 μl of 10 mM Amplex Red+1 μl of 500 U/ml Horseradish Peroxidase) are added and the plate mixed and immediately placed on the FlexStaion for fluorescence measurements. Fluorescence is read in kinetic mode every 2 min for 1 hour at excitation=544 and emission=590. The amine oxidase activity is calculated from the slope of the linear portion of the curve.
A word on the IC50: it is the point on the concentration scale where inhibition reaches its midpoint. As for `NCc1ccnc(-c2ccc(C(=O)N3CCC(O)(C(F)(F)F)C3)cc2)c1` (racemic) [Compound 1-2, Racemic-(4-(4-(aminomethyl)pyridin-2-yl)phenyl)(3-hydroxy-3-(trifluoromethyl)pyrrolidin-1-yl)methanone hydrochloride], the half-maximal inhibitory concentration (IC50) is < 300 nM.

On to `NCc1ccnc(-c2cccc(C(=O)N3CCC(O)(C(F)(F)F)C3)c2)c1` (racemic) [Compound 1-6, Racemic-(3-(4-(aminomethyl)pyridin-2-yl)phenyl)(3-hydroxy-3-(trifluoromethyl)pyrrolidin-1-yl)methanone hydrochloride], for which the IC50 is < 300 nM.

Take `NCc1ccnc(Oc2ccc(C(=O)N3CCC(O)(C(F)(F)F)C3)cc2)c1` (racemic) [Compound 1-12, Racemic-4-((4-aminomethyl)pyridin-2-yl)oxy)phenyl)(3-hydroxy-3-(trifluoromethyl)pyrrolidin-1-yl)methanone hydrochloride]: the 50% inhibitory concentration (IC50) is < 300 nM.

Take `NCc1ccnc(Oc2cccc(C(=O)N3CCC(O)(C(F)(F)F)C3)c2)c1` (racemic) [Compound 1-16, Racemic-(3-((4-(aminomethyl)pyridin-2-yl)oxy)phenyl)(3-hydroxy-3-(trifluoromethyl)pyrrolidin-1-yl)methanone hydrochloride]: the IC50 is < 300 nM.

Regarding `NCc1ccnc(N2C[C@@H](O)[C@H](F)C2)c1` (racemic) [Compound 2-1], the IC50 is > 1000 nM.

In the case of `NCc1ccnc(N2CCC(O)(C(F)(F)F)C2)c1` (racemic) [Compound 2-2, Racemic-1-(4-(Aminomethyl)pyridin-2-yl)-3-(trifluoromethyl)pyrrolidin-3-ol], the IC50 is > 1000 nM.

For `NCc1ccnc(C(=O)N2CCC(O)(C(F)(F)F)C2)c1` (racemic) [Compound 2-40, Racemic-(4-(aminomethyl)pyridin-2-yl)(3-hydroxy-3-(trifluoromethyl)pyrrolidin-1-yl)methanone hydrochloride], the IC50 was < 300 nM.

With `NCc1ccnc(Oc2cccc3c2ccn3CC(=O)N2CCCC(O)(C(F)(F)F)C2)c1` (single isomer, unassigned) [Compound 2-28, (R) or (S)-2-(4-((4-(Aminomethyl)pyridin-2-yl)oxy)-1H-indol-1-yl)-1-(3-hydroxy-3-(trifluoromethyl)piperidin-1-yl)ethan-1-one hydrochloride], the IC50 is < 300 nM.

In the case of `NCc1ccnc(Oc2cccc3c2ccn3CC(=O)N2CCCC(O)(C(F)(F)F)C2)c1` (single isomer, unassigned) [Compound 2-29, (R) or (S)-2-(4-((4-(aminomethyl)pyridin-2-yl)oxy)-1H-indol-1-yl)-1-(3-hydroxy-3-(trifluoromethyl)piperidin-1-yl)ethan-1-one hydrochloride], the IC50 lay in the range of 300 to 1000 nM.

With `COCCNC(=O)c1ccc(-c2cc(CN)ccn2)cc1` [Compound 1-1, 4-(4-(Aminomethyl)pyridin-2-yl)-N-(2-methoxyethyl)benzamide hydrochloride], the IC50 is < 300 nM.

`NCc1ccnc(-c2ccc(C(=O)Nc3ccccc3)cc2)c1` [Compound 1-3, 4-(4-(Aminomethyl)pyridin-2-yl)-N-phenylbenzamide hydrochloride]: the half-maximal inhibitory concentration (IC50) is < 300 nM.

For `NCc1ccnc(-c2ccc(C(=O)NCc3ccccc3)cc2)c1` [Compound 1-4, 4-(4-(Aminomethyl)pyridin-2-yl)-N-benzylbenzamide hydrochloride], the IC50 is < 300 nM.

For `COCCNC(=O)c1cccc(-c2cc(CN)ccn2)c1` [Compound 1-5, 3-(4-(Aminomethyl)pyridin-2-yl)-N-(2-methoxyethyl)benzamide hydrochloride], the IC50 was < 300 nM.

Regarding `NCc1ccnc(-c2cccc(C(=O)Nc3ccccc3)c2)c1` [Compound 1-7, 3-(4-(Aminomethyl)pyridin-2-yl)-N-phenylbenzamide hydrochloride], the IC50 was < 300 nM.

Consider `NCc1ccnc(-c2cccc(C(=O)NCc3ccccc3)c2)c1` [Compound 1-8, 3-(4-(Aminomethyl)pyridin-2-yl)-N-benzylbenzamide hydrochloride], for which the IC50 is < 300 nM.
